From patent publication US20190119284A1, “ErbB Inhibitors and Uses Thereof” (The Regents of the University of California, priority 2016, published 2019)

Key:
Format in all cases: cell-based
NCI-H1975 = NCI-H1975 cell proliferation; details: Homo sapiens, Table 8, n in the line below
HER2+/2VE Ba/F3 line = assay: Ba/F3 proliferation assay, HER2+/2VE; details: Mus musculus, BaF3; Tables 7 and 8
In short: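 Ba/F3 cells combined with drug dilutions and growth factor as needed (10 ng/mL IL-3 or 6.25 ng/mL NRG), 48 h at 37° C. Proliferation by CellTiter-Glo, normalized to DMSO, fitted to log(inhibitor) vs response with variable slope; biological triplicates in technical triplicate.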

A431 = A431 cell proliferation; details: Homo sapiens, A-431; Table 8; n in the line below
[1] = system: parental Ba/F3 cells + IL-3; assay: Ba/F3 proliferation assay, Parental + IL-3; details: Mus musculus, BaF3; Tables 7 and 8; read-out: Ba/F3 line IC50, Parental + IL-3
In short: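 Ba/F3 cells were combined with drug dilutions plus growth factor (10 ng/mL IL-3, or 6.25 ng/mL NRG where needed) and incubated 48 h at 37 °C. Viability read by CellTiter-Glo, normalized to DMSO. Log(inhibitor)-response fit with variable slope; biological triplicates.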

HCC827 = HCC827 cell viability; details: Homo sapiens, compound at 1 nM, n in the line below, read-out: HCC827 (% viable at 1 nM)
Axl+ Ba/F3 cells = target: T1, Axl+ Ba/F3 cells (Homo sapiens, UniProt P30530); assay: Ba/F3 proliferation assay, Axl+; details: Tables 7 and 8; read-out: Ba/F3 line IC50, Axl+
T1 sequence (P30530 1-894): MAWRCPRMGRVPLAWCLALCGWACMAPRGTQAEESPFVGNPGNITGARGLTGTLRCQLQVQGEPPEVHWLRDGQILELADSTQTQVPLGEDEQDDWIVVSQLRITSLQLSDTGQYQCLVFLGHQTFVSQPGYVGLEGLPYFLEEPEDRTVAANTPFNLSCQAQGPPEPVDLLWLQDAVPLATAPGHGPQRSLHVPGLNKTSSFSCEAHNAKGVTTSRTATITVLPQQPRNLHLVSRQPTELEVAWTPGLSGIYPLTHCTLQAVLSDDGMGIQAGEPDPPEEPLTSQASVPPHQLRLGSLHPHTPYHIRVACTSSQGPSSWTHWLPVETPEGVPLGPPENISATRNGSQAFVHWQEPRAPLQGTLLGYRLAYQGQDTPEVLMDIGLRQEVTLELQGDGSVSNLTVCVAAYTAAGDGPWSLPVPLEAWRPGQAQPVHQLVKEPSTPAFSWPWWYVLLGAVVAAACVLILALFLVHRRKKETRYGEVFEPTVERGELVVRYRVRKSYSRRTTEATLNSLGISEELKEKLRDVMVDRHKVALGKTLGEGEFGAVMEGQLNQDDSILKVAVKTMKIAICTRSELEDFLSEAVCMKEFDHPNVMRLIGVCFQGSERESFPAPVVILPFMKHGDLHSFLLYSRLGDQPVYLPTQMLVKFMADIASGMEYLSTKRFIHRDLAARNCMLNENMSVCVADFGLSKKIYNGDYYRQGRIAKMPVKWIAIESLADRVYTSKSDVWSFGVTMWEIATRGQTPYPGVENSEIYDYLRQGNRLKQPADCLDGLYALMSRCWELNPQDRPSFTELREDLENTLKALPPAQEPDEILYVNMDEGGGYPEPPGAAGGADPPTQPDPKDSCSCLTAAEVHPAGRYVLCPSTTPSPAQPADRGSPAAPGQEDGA
Description: To validate the screen and test the effectiveness of counter-screening with either the same 2YF/3wt Ba/F3 cell line or the parental Ba/F3's in the presence of IL-3 to remove cytotoxic primary hits, we first tested a panel of kinase inhibitors with established mechanisms of action.
For Axl+ cells, the transduced cells were spun down at 500×g for 5 min and resuspended in media supplemented with 10 ng/mL IL-3 and 3 μg/mL puromycin (Invitrogen). Cells were maintained in these conditions for 7 days, passaging as required. After 7 days the cells were spun down, washed with fresh media, and then suspended in IL-3 free media. The cells were maintained in these conditions for 2 weeks to select for an IL-3 independent population of Axl+ driven cells.
Proliferation Assays. For adherent cell lines, cells were plated onto opaque white 96 well plates (Greiner cat #655083) and allowed to adhere overnight. The following day media was changed to fresh media that contained either DMSO or the indicated concentration of drug plus NRG (50 ng/mL final concentration) as indicated. Plates were incubated at 37° C. for 72 h and proliferation was read out using Cell Titer Glo (Promega) according to the manufacturer's protocol. For Ba/F3 cell proliferation, cells, drug dilution, and any necessary growth factors (10 ng/mL IL-3 or 6.25 ng/mL NRG) were combined in a well of a 96 well plate. Plates were incubated at 37° C. for 48 h and proliferation was read out using Cell Titer Glo according to the manufacturer's protocol. For all normalized assays, proliferation was normalized to the DMSO control condition. All graphs were plotted in GraphPad Prism 6 and fit with a non-linear regression of the log(inhibitor) vs response with a variable slope where shown. All graphs are averages (+/−standard deviation) of biological triplicates each performed in technical triplicate unless otherwise noted. If only one biological replicate was performed standard deviations were derived from the technical replicates.

[2] = target: 2YF/3wt + NRG Ba/F3 cells (HER2YF/HER3wt) (Homo sapiens, UniProt P04626, Y1005F/Y1023F/Y1112F/Y1127F/Y1139F/Y1196F/Y1221F/Y1222F/Y1248F, cells depend on it); assay: Ba/F3 proliferation assay, 2YF/3wt + NRG; details: Tables 7 and 8; read-out: Ba/F3 line IC50, HER2YF/HER3 + NRG
In short: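 Ba/F3 cells stably expressing HER3 and HER2 with 9 C-terminal Tyr→Phe mutations, selected for NRG dependence after IL-3 withdrawal. Cells were given DMSO or compound plus NRG (50 ng/mL final); proliferation normalized to DMSO, fit by log(inhibitor) vs response with variable slope.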

2YF/3wt + NRG Ba/F3 cells (HER2YF/HER3wt), sequence (P04626 whole entry Y1005F/Y1023F/Y1112F/Y1127F/Y1139F/Y1196F/Y1221F/Y1222F/Y1248F): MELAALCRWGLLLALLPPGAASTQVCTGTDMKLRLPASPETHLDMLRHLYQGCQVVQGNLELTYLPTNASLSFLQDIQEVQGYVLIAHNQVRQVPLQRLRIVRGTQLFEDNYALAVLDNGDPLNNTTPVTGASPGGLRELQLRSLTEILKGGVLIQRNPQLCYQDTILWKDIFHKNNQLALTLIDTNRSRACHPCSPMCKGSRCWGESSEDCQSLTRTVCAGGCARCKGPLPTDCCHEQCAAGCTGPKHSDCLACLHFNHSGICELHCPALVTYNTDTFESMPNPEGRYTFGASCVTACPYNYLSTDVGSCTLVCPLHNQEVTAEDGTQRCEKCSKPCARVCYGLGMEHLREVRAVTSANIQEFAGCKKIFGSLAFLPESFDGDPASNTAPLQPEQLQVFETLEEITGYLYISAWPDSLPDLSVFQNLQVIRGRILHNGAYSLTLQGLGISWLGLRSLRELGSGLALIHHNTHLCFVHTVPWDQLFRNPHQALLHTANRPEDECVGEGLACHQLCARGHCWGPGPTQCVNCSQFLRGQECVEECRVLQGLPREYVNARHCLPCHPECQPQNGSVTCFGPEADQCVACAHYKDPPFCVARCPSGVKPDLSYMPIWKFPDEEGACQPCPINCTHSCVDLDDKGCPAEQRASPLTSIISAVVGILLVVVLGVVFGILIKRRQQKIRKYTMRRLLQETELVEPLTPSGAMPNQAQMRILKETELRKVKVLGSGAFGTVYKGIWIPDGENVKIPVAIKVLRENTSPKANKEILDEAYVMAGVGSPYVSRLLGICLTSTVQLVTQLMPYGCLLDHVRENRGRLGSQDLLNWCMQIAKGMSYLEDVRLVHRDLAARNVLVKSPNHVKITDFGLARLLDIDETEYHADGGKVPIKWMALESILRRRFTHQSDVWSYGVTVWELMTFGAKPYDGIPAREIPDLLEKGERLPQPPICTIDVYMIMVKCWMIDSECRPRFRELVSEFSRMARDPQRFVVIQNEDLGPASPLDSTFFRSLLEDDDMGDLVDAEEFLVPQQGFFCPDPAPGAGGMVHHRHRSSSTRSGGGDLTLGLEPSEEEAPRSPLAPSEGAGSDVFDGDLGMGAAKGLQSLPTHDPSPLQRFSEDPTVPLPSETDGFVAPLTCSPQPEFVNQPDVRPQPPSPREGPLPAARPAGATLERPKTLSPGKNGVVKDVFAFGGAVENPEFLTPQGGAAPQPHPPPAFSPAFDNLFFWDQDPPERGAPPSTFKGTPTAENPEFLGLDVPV

Row | IC50 (NCI-H1975) | IC50 (HER2+/2VE Ba/F3 line) | IC50 (A431) | GI50 (Axl+ Ba/F3 cells) | GI50 [2] | SMILES | IC50 [1] | viability at 0.001 µM (HCC827)
1 | 1740 ± 157 nM | 46.7 nM | 1120 ± 59 nM | 1310 nM | 5 nM | COc1ccc(-c2ccccc2)cc1Nc1ncnc2[nH]cc(-c3ccn(C)n3)c12 [8-095] | > 3330 nM | 49.2 ± 13.7%
2 | 507 ± 85.1 nM | 13.7 nM | 290 ± 71 nM | 612 nM | 1 nM | COc1ccc(-c2ccccc2)cc1Nc1ncnc2[nH]nc(-c3ccn(C)n3)c12 [8-097] | 1770 nM | 29.5 ± 7.1%
